Patent US10961189B2, “Spiro-lactam NMDA receptor modulators and uses thereof” (Aptinyx Inc., priority 2016, dated 2021)
Read-outs that look alike come from different tables or passages of the source.

Key:
rats = test: positive emotional learning (PEL) test, 50-kHz ultrasonic vocalizations; type: in vivo, rat; conditions: PO, dose .1 mg/kg, one hour after administration
Procedure: Experiments were conducted as described in Burgdorf et al., “The effect of selective breeding for differential rates of 50-kHz ultrasonic vocalizations on emotional behavior in rats,” Devel. Psychobiol., 51:34-46 (2009). Rat 50-kHz ultrasonic vocalization (hedonic USVs) is a validated model for the study of positive affective state and is best elicited by rough-and-tumble play.
The PEL assay measures the acquisition of positive (hedonic) 50-kHz ultrasonic vocalizations (USVs) to a social stimulus, heterospecific rough and tumble play stimulation. Heterospecific rough-and-tumble play stimulation was administered by the experimenter's right hand. One hour after administration of test compound or vehicle negative control (0.5% sodium carboxymethyl cellulose in […] sterile saline), animals received 3 min of heterospecific rough-and-tumble play that consisted of alternating 15 sec blocks of heterospecific play and 15 sec of no-stimulation. High frequency ultrasonic vocalizations (USVs) were recorded and analyzed by sonogram with Avasoft SASlab Pro (Germany) as previously described by Burgdorf et al., “Positive emotional learning is regulated in the medial prefrontal cortex by GluN2B-containing NMDA receptors,” Neuroscience, 192:515-523 (2011). Frequency modulated 50-kHz USVs that occurred during each of the no-stimulation periods were quantified to measure PEL. Animals were not habituated to play stimulation before testing. Positive emotional learning was measured during the conditioned stimulus (CS) trials preceding the tickle unconditioned stimulus (UCS) trials. Animals received 15 second trials consisting of 6 CS and 6 UCS trials each (3 min total).
The table below summarizes the findings. As each experiment includes its own vehicle group, an example (typical) vehicle score is shown. Max effect (mean number of 50 kHz USVs per 15 seconds) is reported as ^: <6.0; *: 6-10.9; **: 11-16.9; ***: 17-22.

[1] = oral pharmacokinetics (plasma, brain, CSF); type: in vivo, Sprague Dawley rats; conditions: rat, per os 10 mg/kg; for Tmax: normal saline (* in 5% NMP, 5% Solutol HS, 90% normal saline)
Procedure: In another experiment, Sprague Dawley rats were dosed per os using a normal saline formulation containing 10 mg/kg of the compounds identified in the table below (except for the compounds marked with an asterisk (“*”) that were delivered in 5% NMP, 5% Solutol® HS and 90% normal saline formulation). Plasma, brain, and CSF samples were analyzed at various time points over a 24 hour period.

NMDAR2A = target: T1, NMDAR2A (Homo sapiens, UniProt Q12879); test: [3H]MK-801 binding in NMDAR expressing HEK cell membranes (facilitation of NMDAR activation); type: biochemical; conditions: 50 μM glutamate; for EC50: read-out: B: log EC50 (converted); for Emax: 0.25 h, read-out: A: % maximal [3H]MK-801 binding relative to 1 mM glycine
T1 construct: expressed in transfected cells; host or cells: HEK cells (membrane extract)
Procedure: (§1) Assays were conducted as described by Moskal et al., “GLYX-13: a monoclonal antibody-derived peptide that acts as an N-methyl-D-aspartate receptor modulator,” Neuropharmacology, 49, 1077-87, 2005. These studies were designed to determine if the test compounds act to facilitate NMDAR activation in NMDAR2A, NMDAR2B, NMDAR2C or NMDAR2D expressing HEK cell membranes as measured by increases in [^3H]MK-801 binding.
(§2) In the assay, 300 μg of NMDAR expressing HEK cell membrane extract protein was preincubated for 15 minutes at 25° C. in the presence of saturating concentrations of glutamate (50 μM) and varying concentrations of test compound (1×10^15M−1×10^−7M), or 1 mM glycine. Following the addition of 0.3 μCi of [^3H]MK-801 (22.5 Ci/mmol), reactions were again incubated for 15 minutes at 25° C. (nonequilibrium conditions). Bound and free [^3H]MK-801 were separated via rapid filtration using a Brandel apparatus.
(§3) In analyzing the data, the DPM (disintegrations per minute) of [^3H]MK-801 remaining on the filter were measured for each concentration of test compound or for 1 mM glycine. The DPM values for each concentration of a ligand (N=2) were averaged. The baseline value was determined from the best fit curve of the DPM values modeled using the GraphPad program and the log(agonist) vs. response (three parameters) algorithm was then subtracted from all points in the dataset. The % maximal [^3H]MK-801 binding was then calculated relative to that of 1 mM glycine: all baseline subtracted DPM values were divided by the average value for 1 mM glycine. The EC50 and % maximal activity were then obtained from the best fit curve of the % maximal [^3H]MK-801 binding data modelled using the GraphPad program and the log(agonist) vs. response (three parameters) algorithm.
(§4) The tables below summarize the results for the wild type NMDAR agonists NMDAR2A, NMDAR2B, NMDAR2C, and NMDAR2D, and whether the compound is not an agonist (−), is an agonist (+), or is a strong agonist (++), where column A is based on the % maximal [^3H]MK-801 binding relative to 1 mM glycine (−=0; <100%=+; and >100%=++); and column B is based on log EC50 values (0=−; ≥1×10^−9 M (e.g., −8)=+; and <1×10^−9 M (e.g., −10)=++).

NMDAR2B = target: T2, NMDAR2B (Homo sapiens, UniProt Q13224); test: as above; type: biochemical; conditions: 50 μM glutamate; for EC50: read-out: B: log EC50 (converted); for Emax: 0.25 h, read-out: A: % maximal [3H]MK-801 binding relative to 1 mM glycine
T2 construct: expressed in transfected cells; host or cells: HEK cells (membrane extract)
Procedure: as §1, §2, §3, §4

IV pharmacokinetics = type: in vivo, Sprague Dawley rats; conditions: rat, normal saline (* in 5% NMP, 5% Solutol HS, 90% normal saline); for AUC(0-t) / half-life / C0 / Vd: Sprague-Dawley, in vivo, iv; for C0: read-out: C0; for Vd: read-out: Vss; for CI: intravenous 2 mg/kg
From the text: The table below summarizes the results of the IV pharmacokinetics.

Sprague Dawley rats [2] = test: Porsolt forced swim test; type: in vivo, rat; conditions: 0.1 mg/kg
Procedure: A non-clinical in vivo pharmacology study (Porsolt assay) was performed to measure antidepressant-like effects. A negative control (0.5% sodium carboxymethyl cellulose in 0.9% sterile saline vehicle) and a positive control (fluoxetine) are shown for comparison against test compound. The study allowed for the evaluation of the effects of each compound on the Porsolt forced swim test as assessed by the rats' response (reduced floating time) during a 5-minute swimming test.
(§5) Male 2-3 month old Sprague Dawley rats were used (Harlan, Indianapolis, Ind.). Rats were housed in Lucite cages with aspen wood chip bedding, maintained on a 12:12 light:dark cycle (lights on at 5 AM), and given ad libitum access to Purina lab chow (USA) and tap water throughout the study.
The Porsolt forced swim test adapted for use in rats was performed as described by Burgdorf et al., (The long-lasting antidepressant effects of rapastinel (GLYX-13) are associated with a metaplasticity process in the medial prefrontal cortex and hippocampus. Neuroscience 308:202-211, 2015). Animals were placed in a 46 cm tall×20 cm in diameter clear glass tube filled to 30 cm with tap water (23±1° C.) for 15 min on the first day (habituation) and 5 min on the subsequent test day. Positive control fluoxetine was dosed 3 times (24 h, 5 h and 1 h) prior to testing. Animals were tested 1 h or 24 h post-dosing with the test compounds or vehicle. Animals received a 15 min habituation session 1 day before the 5 min test. A subset of compounds tested at 1 h post-dosing were retested at 1 wk post-dosing in the same sets of animals. Water was changed after every other animal. Animals were videotaped, and floating time as defined as the minimal amount of effort required to keep the animals head above water was scored offline by a blinded experimenter with high inter-rater reliability (Pearson's r>0.9).
Each compound tested at dose level shown. Significance vs. vehicle group for each experiment is marked. […] A compound marked “No” was not statistically significant from vehicle. Data was averaged for test compound and vehicle groups (N approximately 8 per group) and the percent reduction in floating for group treated with test compound relative to group treated with vehicle is shown.

Sprague Dawley rats [3] = test: Bennett model of mechanical analgesia (sciatic nerve chronic constriction, paw withdrawal threshold); type: in vivo, rat; conditions: 10 mg/kg PO;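 further: log paw withdrawal threshold scaled from vehicle group mean (0%) to naive 15 g value (100%)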
Procedure: The Bennett model of mechanical analgesia is used to assess the analgesic effects of compounds as measured by paw withdrawal threshold. Bennett GJ, Xie YK, “A peripheral mononeuropathy in rat that produces disorders of pain sensation like those seen in man,” Pain 33:87-107, 1988. […] Vehicle animals receive the surgery and then receive vehicle rather than test compound. Animals were tested 1 hr, 24 h and 1 wk post-test compound or vehicle administration.
as §5, with “used. Harlan was the supplier for all studies.” for “used (Harlan, Indianapolis, Ind.).”
Rats were anesthetized using inhaled isoflurane (2.5%). Sciatic nerve chronic constriction nerve injury surgery was performed as previously described (Bennett and Xie, 1988). An incision (˜1.5 cm in length) was made with a scalpel blade dorsally through skin on the right hind limb, parallel and posterior to femur. Using a small pointed hemostat, the biceps femoris and gluteus superficialis muscles were separated. Using curved blunt forceps, the common sciatic nerve was isolated and exposed. For the mechanical analgesia studies, the whole sciatic nerve was ligated. Using hemostats/forceps and chromic gut (5-0), the nerve was loosely ligated with a square knot; 3 ligatures, 1 mm apart were placed on the nerve. […] Testing occurred approximately 2 weeks post-surgery.
During testing, rats were acclimated to the surface of a suspended wire mesh grid (1 cm×1 cm, with the wire being 0.3 cm in diameter) for 15-20 min. Starting from the smallest, each Von Frey filament was pressed perpendicularly to the plantar surface of the affected (ipsilateral) hind paw until slightly bent and then held for 6 second. If an obvious hind paw withdrawal or a flinching behavior immediately after the withdrawal of the filament was not observed, the next larger filament was used in the same manner. In case of a response, a lower filament was used. This was repeated until six responses were collected.
For all studies, animals were baselined prior to study start to test for allodynia (defined as a paw withdrawal threshold under 5). A subset of animals was tested with gabapentin (150 mg/kg, PO) to ensure at least 50% analgesia. Once it was confirmed animals were ready for study initiation, animals were balanced across groups. All study investigators were blind to treatment conditions. Animals were dosed with 0.1, 1 or 10 mg/kg of test compound via oral gavage (PO), control sets of animals were dosed with gabapentin (150 mg/kg, PO) or vehicle (0.5% Na-CMC in 0.9% sterile saline, PO). Testing occurred 1 h post-dosing with animals retested 24 hrs and 1 week post-dosing. The percent analgesia calculations for each animal were made using the following equation: % analgesia=[(log(x)−y)/((log (z)−y)]*100, where x=the paw withdrawal threshold for the drug-treated animal in grams, y=the average of the log(x) values for the vehicle treated group, and z=the paw withdrawal threshold for naïve animals in grams (historical value of 15 used).
The results are shown in the table below where the percentage of analgesia is measured at 1 hour, 24 hours, and 1 week after compound administration. Since each study had its own gabapentin control group, an example gabapentin control value is shown.

[4] = Sprague-Dawley, plasma, po, 10 mg/kg
[5] = Sprague-Dawley, plasma, po, 10 mg/kg, read-out: Tmax
[6] = Sprague-Dawley, plasma, po, 10 mg/kg, plasma, read-out: Cmax

T2 sequence (Q13224 27-1484, species assumed, other chains not shown): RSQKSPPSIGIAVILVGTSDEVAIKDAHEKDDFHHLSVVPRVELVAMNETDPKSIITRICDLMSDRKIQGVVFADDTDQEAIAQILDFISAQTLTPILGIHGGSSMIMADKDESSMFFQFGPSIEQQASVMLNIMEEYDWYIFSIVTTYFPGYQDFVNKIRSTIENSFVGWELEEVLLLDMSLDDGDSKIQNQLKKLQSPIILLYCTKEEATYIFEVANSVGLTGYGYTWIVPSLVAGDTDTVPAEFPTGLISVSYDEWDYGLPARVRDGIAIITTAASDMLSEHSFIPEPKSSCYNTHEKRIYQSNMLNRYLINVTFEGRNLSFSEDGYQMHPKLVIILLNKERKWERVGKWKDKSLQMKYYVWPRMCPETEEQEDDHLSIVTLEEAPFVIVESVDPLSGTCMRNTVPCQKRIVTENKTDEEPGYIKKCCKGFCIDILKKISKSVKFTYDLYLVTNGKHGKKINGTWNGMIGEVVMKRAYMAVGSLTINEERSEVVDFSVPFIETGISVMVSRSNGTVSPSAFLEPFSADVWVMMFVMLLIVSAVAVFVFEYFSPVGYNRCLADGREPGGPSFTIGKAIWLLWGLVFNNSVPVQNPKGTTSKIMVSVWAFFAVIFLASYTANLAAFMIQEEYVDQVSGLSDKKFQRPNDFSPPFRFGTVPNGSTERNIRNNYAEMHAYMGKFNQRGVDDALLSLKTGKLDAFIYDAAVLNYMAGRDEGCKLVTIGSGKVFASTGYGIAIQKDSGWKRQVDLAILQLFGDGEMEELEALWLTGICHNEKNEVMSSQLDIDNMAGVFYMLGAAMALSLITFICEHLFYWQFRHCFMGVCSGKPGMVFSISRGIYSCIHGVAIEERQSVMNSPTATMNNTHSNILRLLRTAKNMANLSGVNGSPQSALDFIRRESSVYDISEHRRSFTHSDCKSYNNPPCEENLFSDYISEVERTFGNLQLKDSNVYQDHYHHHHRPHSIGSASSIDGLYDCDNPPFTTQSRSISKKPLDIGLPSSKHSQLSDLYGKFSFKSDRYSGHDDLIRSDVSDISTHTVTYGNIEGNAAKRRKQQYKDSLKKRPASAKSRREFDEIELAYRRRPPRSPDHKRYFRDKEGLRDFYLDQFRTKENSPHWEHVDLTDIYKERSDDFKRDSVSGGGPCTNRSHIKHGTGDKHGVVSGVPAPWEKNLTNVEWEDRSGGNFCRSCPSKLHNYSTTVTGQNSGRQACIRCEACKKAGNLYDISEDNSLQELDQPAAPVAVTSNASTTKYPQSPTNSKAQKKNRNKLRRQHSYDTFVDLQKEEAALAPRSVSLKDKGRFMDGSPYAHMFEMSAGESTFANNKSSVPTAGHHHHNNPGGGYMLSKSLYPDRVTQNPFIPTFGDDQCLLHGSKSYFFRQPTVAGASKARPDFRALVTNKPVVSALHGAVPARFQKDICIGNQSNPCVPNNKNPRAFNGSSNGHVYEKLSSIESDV
T1 sequence (Q12879 23-1464, species assumed, other chains not shown): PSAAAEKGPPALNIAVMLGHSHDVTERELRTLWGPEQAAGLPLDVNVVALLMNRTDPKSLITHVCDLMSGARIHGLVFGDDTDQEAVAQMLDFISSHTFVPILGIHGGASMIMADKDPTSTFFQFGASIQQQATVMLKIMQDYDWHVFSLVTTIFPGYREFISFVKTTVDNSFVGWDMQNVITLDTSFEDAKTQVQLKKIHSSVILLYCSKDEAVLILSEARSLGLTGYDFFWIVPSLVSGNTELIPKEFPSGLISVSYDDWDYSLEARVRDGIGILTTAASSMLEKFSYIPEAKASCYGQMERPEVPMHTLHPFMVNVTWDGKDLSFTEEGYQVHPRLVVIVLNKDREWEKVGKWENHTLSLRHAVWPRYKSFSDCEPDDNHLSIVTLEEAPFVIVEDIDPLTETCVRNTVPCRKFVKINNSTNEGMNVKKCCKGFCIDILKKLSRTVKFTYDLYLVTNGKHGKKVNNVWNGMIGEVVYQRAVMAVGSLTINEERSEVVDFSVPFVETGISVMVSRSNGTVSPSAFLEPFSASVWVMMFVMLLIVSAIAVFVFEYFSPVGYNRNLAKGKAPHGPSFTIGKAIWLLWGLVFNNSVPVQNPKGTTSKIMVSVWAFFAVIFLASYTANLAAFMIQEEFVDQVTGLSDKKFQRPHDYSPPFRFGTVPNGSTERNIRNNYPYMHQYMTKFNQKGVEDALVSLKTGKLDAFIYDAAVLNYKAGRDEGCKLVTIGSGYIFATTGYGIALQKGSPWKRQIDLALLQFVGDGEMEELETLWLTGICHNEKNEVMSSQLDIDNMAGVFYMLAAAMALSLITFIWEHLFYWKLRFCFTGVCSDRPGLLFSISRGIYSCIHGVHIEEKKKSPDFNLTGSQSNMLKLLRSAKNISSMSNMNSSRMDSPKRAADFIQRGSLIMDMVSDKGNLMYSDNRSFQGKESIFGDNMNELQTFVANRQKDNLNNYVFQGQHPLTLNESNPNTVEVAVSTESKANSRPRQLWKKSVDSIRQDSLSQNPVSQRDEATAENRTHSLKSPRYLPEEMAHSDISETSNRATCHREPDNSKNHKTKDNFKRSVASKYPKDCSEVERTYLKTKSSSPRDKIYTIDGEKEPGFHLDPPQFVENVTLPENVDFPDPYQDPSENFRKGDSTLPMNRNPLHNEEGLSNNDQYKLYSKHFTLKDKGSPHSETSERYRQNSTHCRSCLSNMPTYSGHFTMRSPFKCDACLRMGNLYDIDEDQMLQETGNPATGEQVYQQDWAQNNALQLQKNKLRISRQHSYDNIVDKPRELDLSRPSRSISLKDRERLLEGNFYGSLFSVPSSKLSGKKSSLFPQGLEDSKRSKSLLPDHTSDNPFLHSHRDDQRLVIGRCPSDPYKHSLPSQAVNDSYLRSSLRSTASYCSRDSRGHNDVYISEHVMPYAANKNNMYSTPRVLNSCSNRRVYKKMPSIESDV

Row | SMILES | Max Effect (mean number of 50 kHz USVs per 15 seconds) (rats) | CSF Cmax [1] | EC50 (NMDAR2A) | EC50 (NMDAR2B) | AUC(0-t) (IV pharmacokinetics; 2 mg/kg) | half-life (IV pharmacokinetics; 2 mg/kg) | C0 (IV pharmacokinetics; 2 mg/kg) | Vd (IV pharmacokinetics; 2 mg/kg) | Tmax [1, 5] | Cmax [1, 6] | Emax (NMDAR2A) | Emax (NMDAR2B) | also measured
1 | C[C@@H](O)[C@H](NC1CCC2(CC1)CNC2=O)C(N)=O (single isomer, unassigned) [AQ] | ** (**: 11-16.9) | 65.84 ng/mL | ≥ 1 nM | < 1 nM | 2290 ng·h/mL | 3.84 h | 3990 ng/mL | 1.22 L/kg |  |  |  |  | % F [1]: 16%; Brain Cmax ([1]; brain): 29.91 ng/mL; Tmax [1]: 1 h; AUClast ([1]; plasma): 1805.63 ng·h/mL; Cmax ([1]; plasma): 499.27 ng/mL; A: % maximal [3H]MK-801 binding relative to 1 mM glycine (NMDAR2A): + (<100%=+); A: % maximal [3H]MK-801 binding relative to 1 mM glycine (NMDAR2B): + (<100%=+); CI (IV pharmacokinetics; 2 mg/kg): 14.64 mL/min/kg
2 | O=C1NCC12CCCCC2 [Compound AB, 2-azaspiro[3.5]nonan-1-one] |  |  | ≥ 1 nM | < 1 nM | 2650 ng·h/mL | 3.42 h | 2050 ng/mL | 1.13 L/kg | 0.42 h | 7690 ng/mL | < 100% | < 100% | AUC(0-t) [1, 4]: 11600 ng·h/mL; bioavailability [1, 4]: 88%; CI (IV pharmacokinetics): 16.1 mL/min/kg; % reduction in float time (Sprague Dawley rats [2]; 1 h post-dose): 73.2%; Significance vs. vehicle (Sprague Dawley rats [2]; 1 h post-dose): Yes (statistically significant (p<=0.05) from vehicle at dose level shown); % reduction in float time (Sprague Dawley rats [2]; 24 h post-dose): 79.90%; Significance vs. vehicle (Sprague Dawley rats [2]; 24 h post-dose): Yes (statistically significant (p<=0.05) from vehicle at dose level shown)
3 | C[C@@H](O)[C@@H](C(N)=O)N1CC2(CCC(F)(F)CC2)C1=O [Compound AO, (2S,3R)-2-(7,7-difluoro-1-oxo-2-azaspiro[3.5]nonan-2-yl)-3-hydroxybutanamide] | * (*: 6-10.9) | 1676.3 ng/mL |  | < 1 nM |  |  |  |  | 1 h | 7310 ng/mL | 0% | < 100% | % analgesia (Sprague Dawley rats [3]; 1 wk): 18.2%; % analgesia (Sprague Dawley rats [3]; 1 h): 23.7%; % analgesia (Sprague Dawley rats [3]; 24 h): 7.5%
